Source: ChEMBL document CHEMBL6134812, “A thiocoumarin based self-reporting sulfide prodrug strategy with a favorable safety profile” (Eur J Med Chem, 2025)
Activity calls are given as the source filed them. The calls are words filed in the database; no cut-off is given here.

Key:
Mus musculus [1] = assay: Protection against cerebral infarction in C57BL/6JNifdc mouse tMCAO model assessed as decrease in infarction area in brain at 100 umol/kg, iv measured after 24 hrs by TTC staining based analysis; assay type: functional, organism-based; settings: dose 100.0 µmol/kg
Mus musculus [2] = assay: Anticoagulant activity in C57BL/6J mouse assessed as tail bleeding time at 40 mg/kg, ip and measured for 40 mins; assay type: functional
[3] = Drug uptake in C57BL/6J mouse brain assessed as increase in fluorescence intensity at 100 umol/kg, iv measured after 10 mins by Ex vivo fluorescent imaging analysis; assay type: ADME, organism-based; settings: dose 100 µmol/kg
[4] = Drug uptake in C57BL/6J mouse kidney assessed as increase in fluorescence intensity at 100 umol/kg, iv measured after 10 mins by Ex vivo fluorescent imaging analysis; assay type: ADME, organism-based; settings: dose 100 µmol/kg
[5] = Drug uptake in C57BL/6J mouse liver assessed as increase in fluorescence intensity at 100 umol/kg, iv measured after 10 mins by Ex vivo fluorescent imaging analysis; assay type: ADME, organism-based; settings: dose 100 µmol/kg
[6] = Prodrug release in Sprague-Dawley rat plasma assessed as increase in fluorescence intensity by measuring half life at 500 uM by fluorescence based analysis; assay type: ADME, cell-free
Liver carboxylesterase [7] = target: T1, Liver carboxylesterase (Sus scrofa, UniProt Q29550); assay: Prodrug release assessed as pig liver esterase-mediated H2S and fluorescent coumarin release by measuring half life of drug at 500 uM by HPLC analysis; assay type: ADME
T1 sequence (Q29550 whole entry): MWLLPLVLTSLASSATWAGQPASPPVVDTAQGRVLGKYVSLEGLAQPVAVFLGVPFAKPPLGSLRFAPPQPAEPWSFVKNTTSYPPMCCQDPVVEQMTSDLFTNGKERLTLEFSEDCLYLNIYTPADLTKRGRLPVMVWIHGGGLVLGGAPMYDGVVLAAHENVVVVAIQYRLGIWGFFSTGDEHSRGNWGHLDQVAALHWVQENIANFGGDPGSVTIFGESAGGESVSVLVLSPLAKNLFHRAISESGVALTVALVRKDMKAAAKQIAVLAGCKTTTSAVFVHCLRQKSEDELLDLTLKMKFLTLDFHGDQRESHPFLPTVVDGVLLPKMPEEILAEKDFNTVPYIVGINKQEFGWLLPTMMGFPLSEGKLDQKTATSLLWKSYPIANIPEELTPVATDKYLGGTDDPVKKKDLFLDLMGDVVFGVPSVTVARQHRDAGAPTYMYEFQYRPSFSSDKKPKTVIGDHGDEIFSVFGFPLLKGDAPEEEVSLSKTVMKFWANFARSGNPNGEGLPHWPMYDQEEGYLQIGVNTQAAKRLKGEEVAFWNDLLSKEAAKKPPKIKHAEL

[8] = Prodrug release in Sprague-Dawley rat plasma assessed as fluorescence intensity at 500 uM by fluorescence based analysis; assay type: ADME, cell-free
[9] = Prodrug release in C57BL/6J mouse kidney assessed as H2S generation by measuring increase in fluorescence intensity at 100 umol/kg, iv measured after 6 hrs by Ex vivo fluorescent imaging analysis; assay type: ADME, organism-based; settings: dose 100 µmol/kg
Mus musculus [10] = assay: Protection against cerebral infarction in C57BL/6JNifdc mouse tMCAO model assessed as decrease in LDH level in brain at 100 umol/kg, iv measured after 24 hrs; assay type: functional, organism-based; settings: dose 100.0 µmol/kg
Liver carboxylesterase [11] = target: T1, Liver carboxylesterase; assay: Prodrug release assessed as pig liver esterase-mediated H2S and fluorescent coumarin release by measuring half life of drug at 500 uM by fluorescence based analysis; assay type: ADME
Mus musculus [12] = assay: Anticoagulant activity in C57BL/6J mouse assessed as activated partial thromboplastin time at 40 mg/kg, ip; assay type: functional, organism-based
[13] = Prodrug release in Sprague-Dawley rat plasma assessed as fluorescence intensity at 500 uM measured after 24 hrs in presence of esterase inhibitor by fluorescence based analysis; assay type: ADME, cell-free
[14] = Prodrug release in C57BL/6J mouse liver assessed as H2S generation by measuring increase in fluorescence intensity at 100 umol/kg, iv measured after 6 hrs by Ex vivo fluorescent imaging analysis; assay type: ADME, organism-based; settings: dose 100 µmol/kg
Liver carboxylesterase [15] = target: T1, Liver carboxylesterase; assay: Prodrug release assessed as pig liver esterase-mediated H2S and fluorescent coumarin release at 500 uM incubated for 24 hrs in presence of esterase inhibitor by HPLC analysis; assay type: ADME; settings: isolated protein
[16] = Prodrug release in C57BL/6J mouse brain assessed as increase in fluorescence intensity at 100 umol/kg, iv measured after 6 hrs by fluorescence based analysis; assay type: ADME, organism-based; settings: in vivo, dose 100 µmol/kg
Mus musculus [17] = assay: Anticoagulant activity in C57BL/6J mouse assessed as prothrombin time at 40 mg/kg, ip; assay type: functional, organism-based
[18] = Prodrug release in C57BL/6J mouse liver assessed as increase in fluorescence intensity at 100 umol/kg, iv measured after 6 hrs by fluorescence based analysis; assay type: ADME, organism-based; settings: in vivo, dose 100 µmol/kg
Mus musculus [19] = assay: Protection against cerebral infarction in C57BL/6JNifdc mouse tMCAO model assessed as decrease in MDA level in serum at 100 umol/kg, iv measured per mg protein after 24 hrs; assay type: functional; settings: dose 100 µmol/kg
[20] = Prodrug release in C57BL/6J mouse kidney assessed as increase in fluorescence intensity at 100 umol/kg, iv measured after 6 hrs by fluorescence based analysis; assay type: ADME, organism-based; settings: in vivo, dose 100 µmol/kg
Liver carboxylesterase [21] = target: T1, Liver carboxylesterase; assay: Prodrug release assessed as pig liver esterase-mediated H2S and coumarin release by measuring H2S concentration at 500 uM measured after 12 hrs by methylene blue method; assay type: ADME; settings: isolated protein
[22] = Prodrug release in C57BL/6J mouse brain assessed as H2S generation by measuring increase in fluorescence intensity at 100 umol/kg, iv measured after 6 hrs by Ex vivo fluorescent imaging analysis; assay type: ADME, organism-based; settings: dose 100 µmol/kg
Mus musculus [23] = assay: Acute renal toxicity in C57BL/6J mouse assessed as GSH level in kidney at 869 mg/kg, ip measured after 24 hrs; assay type: organism-based; settings: in vivo
[24] = Acute liver toxicity in C57BL/6J mouse assessed as ALP level in serum at 869 mg/kg, ip measured after 24 hrs; assay type: organism-based; settings: in vivo
[25] = Acute toxicity in C57BL/6J mouse assessed as total protein level at 869 mg/kg, ip measured after 24 hrs; assay type: organism-based; settings: in vivo
[26] = Acute liver toxicity in C57BL/6J mouse assessed as gamma-GT level in liver at 869 mg/kg, ip measured after 24 hrs; assay type: organism-based; settings: in vivo
[27] = Acute toxicity in C57BL/6J mouse assessed as visible bleeding in cerebral area at 869 mg/kg, ip measured after 24 hrs; assay type: organism-based; settings: in vivo
[28] = Acute toxicity in C57BL/6J mouse assessed as total bilirubin level in serum at 869 mg/kg, ip measured after 24 hrs; assay type: organism-based; settings: in vivo
[29] = Acute toxicity in C57BL/6J mouse assessed as morphological changes in kidney at 869 mg/kg, ip measured after 24 hrs by Hematoxylin-Eosin staining based analysis; assay type: organism-based; settings: in vivo
[30] = Acute toxicity in C57BL/6J mouse assessed as creatinine level in serum at 869 mg/kg, ip measured after 24 hrs; assay type: organism-based; settings: in vivo
Mus musculus [31] = assay: Acute renal toxicity in C57BL/6J mouse assessed as albumin level in serum at 869 mg/kg, ip measured after 24 hrs; assay type: organism-based; settings: in vivo
[32] = Acute toxicity in C57BL/6J mouse assessed as SOD level at 869 mg/kg, ip measured after 24 hrs; assay type: organism-based; settings: in vivo
[33] = Acute toxicity in C57BL/6J mouse assessed as morphological changes in liver at 869 mg/kg, ip measured after 24 hrs by Hematoxylin-Eosin staining based analysis; assay type: organism-based; settings: in vivo
[34] = Acute toxicity in C57BL/6J mouse assessed as uric acid level in serum at 869 mg/kg, ip measured after 24 hrs; assay type: organism-based; settings: in vivo
[35] = Acute liver toxicity in C57BL/6J mouse assessed as AST level in serum at 869 mg/kg, ip measured after 24 hrs; assay type: organism-based; settings: in vivo
[36] = Acute liver toxicity in C57BL/6J mouse assessed as ALT level in serum at 869 mg/kg, ip measured after 24 hrs; assay type: organism-based; settings: in vivo

## CCN(CC)c1ccc2c(C)cc(=O)oc2c1
Mus musculus [1]
  Activity: Active; Slight Decrease Compared To Thio-Coumarins (Sulfide Prodrugs)
Mus musculus [2]
  Time: 9.58 min

## Cc1cc(=O)oc2cc(O)ccc12 [HYMECROMONE]
[3]
  Drug uptake: Active
[4]
  Drug uptake: Active
Mus musculus [1]
  Activity: Active; Slight Decrease Compared To Thio-Coumarins (Sulfide Prodrugs)
[5]
  Drug uptake: Active
Mus musculus [2]
  Time: 13.99 min

## CCN(CC)c1ccc2c(CN(C)O)cc(=S)oc2c1
[6]
  t1/2: 5.78 h
Liver carboxylesterase [7]
  t1/2: > 120 h

## S=c1ccc2ccccc2o1
[8]
  Drug metabolism: metabolite_notdetected
Liver carboxylesterase [7]
  t1/2: 94.44 h

## Cc1cc(=S)oc2cc3cc(O)ccc3cc12
[6]
  t1/2: 52.4 h
Liver carboxylesterase [7]
  t1/2: > 120 h

## Cc1cc(=S)oc2cc(N(C)C)ccc12
[6]
  t1/2: 36.22 h
Liver carboxylesterase [7]
  t1/2: > 120 h

## COc1ccc2cc3c(C)cc(=S)oc3cc2c1
[6]
  t1/2: 9.06 h
Liver carboxylesterase [7]
  t1/2: > 120 h

## O=c1ccc2cc3ccoc3cc2o1 [PSORALEN]
Mus musculus [1]
  Activity: Active; Slight Decrease Compared To Thio-Coumarins (Sulfide Prodrugs)
Mus musculus [2]
  Time: 22.24 min

## Cc1cc(=S)oc2cc(O)ccc12
[9]
  Drug metabolism: metabolite_detected
[6]
  t1/2: 2.52 h
Mus musculus [10]
  Activity: Active
Liver carboxylesterase [11]
  t1/2: 50.4 h
Mus musculus [12]
  Activity: Active; Retained The Anticoagulant Activity Of Coumarins Observed
[13]
  Drug metabolism: metabolite_notdetected
[14]
  Drug metabolism: metabolite_detected
Mus musculus [1]
  Activity: Active
Liver carboxylesterase [15]
  Drug metabolism: metabolite_notdetected
[16]
  Drug metabolism: metabolite_detected
Mus musculus [17]
  Activity: Active; Retained The Anticoagulant Activity Of Coumarins Observed
[18]
  Drug metabolism: metabolite_detected
Mus musculus [19]
  Activity: 7.59 nmol
[20]
  Drug metabolism: metabolite_detected
Mus musculus [2]
  Time: 10.84 min
Liver carboxylesterase [21]
  Drug metabolism: 31.46 µM
Liver carboxylesterase [7]
  t1/2: 57.59 h
[22]
  Drug metabolism: metabolite_detected

## Nc1ccc2c(C(F)(F)F)cc(=S)oc2c1
[6]
  t1/2: 9.43 h
Liver carboxylesterase [7]
  t1/2: > 120 h

## S=c1ccc2cc3ccoc3cc2o1
Mus musculus [23]
  Activity: Non-toxic
[6]
  t1/2: 3.95 h
Mus musculus [10]
  Activity: Active
[24]
  Activity: Non-toxic
Mus musculus [12]
  Activity: Active; Retained The Anticoagulant Activity Of Coumarins Observed
[25]
  Activity: Non-toxic
[26]
  Activity: Non-toxic
Mus musculus [1]
  Activity: Active
[27]
  Activity: Non-toxic
[28]
  Activity: Non-toxic
[29]
  Activity: Non-toxic
[30]
  Activity: Non-toxic
Mus musculus [17]
  Activity: Active; Retained The Anticoagulant Activity Of Coumarins Observed
Mus musculus [19]
  Activity: 14.14 nmol
Mus musculus [31]
  Activity: Non-toxic
[32]
  Activity: Non-toxic
[33]
  Activity: Non-toxic
[34]
  Activity: Non-toxic
[35]
  Activity: Non-toxic
Mus musculus [2]
  Time: 16.52 min
Liver carboxylesterase [7]
  t1/2: 62.89 h
[36]
  Activity: Non-toxic

## CCN(CC)c1ccc2c(C)cc(=S)oc2c1
Mus musculus [10]
  Activity: Active
Mus musculus [12]
  Activity: Active; Retained The Anticoagulant Activity Of Coumarins Observed
Mus musculus [1]
  Activity: Active
Mus musculus [17]
  Activity: Active; Retained The Anticoagulant Activity Of Coumarins Observed
Mus musculus [19]
  Activity: 7.4 nmol
Mus musculus [2]
  Time: 16.6 min
Liver carboxylesterase [7]
  t1/2: > 120 h

## S=c1ccc2ccc3occc3c2o1
[8]
  Drug metabolism: metabolite_notdetected
Liver carboxylesterase [7]
  t1/2: 66.71 h
